According to patent US10294234B2, “HIV inhibitor compounds” (priority 2017, dated 2019):
Like-named read-outs stand apart in the source and are kept apart here.

System: HIV-1 (IIIB) in MT-4 cells
Experiment: MT-4 HIV assay
Assay type: cell-based
Details: Human immunodeficiency virus 1, MT4, 120 h
Description: Compounds were tested in a high-throughput 384-well assay format for their ability to inhibit the replication of HIV-1 (IIIB) in MT-4 cells. Compounds were serially diluted (1:3) in DMSO on 384-well polypropylene plates and further diluted 200-fold into complete RPMI media (10% FBS, 1% P/S) using the Biotek Micro Flow and Agilent ECHO acoustic dispenser. Each plate contained up to 8 test compounds, with negative (No Drug Control) and 5 uM AZT positive controls. MT-4 cells were pre-infected with 10 uL of either RPMI (mock-infected) or a fresh 1:250 dilution of an HIV-1 (IIIB) concentrated virus stock. Infected and uninfected MT-4 cells were further diluted in complete RPMI media and added to each plate using a Micro Flow dispenser. After 5 days incubation in a humidified and temperature controlled incubator (37° C.), Cell Titer Glo (Promega) was added to the assay plates to quantify the amount of luciferase.

[1] = HIV-1 (IIIB), MT-4 cells, 5 days, Cell Titer Glo, read-out: EC50

SMILES	EC50 [1]	EC50
COC(=O)N[C@H](C(=O)NN(Cc1c(F)cc(-c2cn(C(F)F)cn2)cc1F)C[C@H](O)[C@H](Cc1ccc(C#Cc2cnc(N3CC4CCC(C3)N4C3COC3)nc2)cc1)NC(=O)[C@@H](NC(=O)OC)C(C)(C)C(F)(F)F)C(C)(C)C [Example 2, Methyl ((5S,8S,9S,14S)-11-(4-(1-(difluoromethyl)-1H-imidazol-4-yl)-2,6-difluorobenzyl)-9-hydroxy-15,15-dimethyl-8-(4-((2-(8-(oxetan-3-yl)-3,8-diazabicyclo[3.2.1]octan-3-yl)pyrimidin-5-yl)ethynyl)benzyl)-3,6,13-trioxo-5-(1,1,1-trifluoro-2-methylpropan-2-yl)-2-oxa-4,7,11,12-tetraazahexadecan-14-yl)carbamate]	2.64 nM	
COC(=O)N[C@H](C(=O)N[C@@H](Cc1ccc(C#Cc2ccc(N3CC4CCC(C3)N4C3COC3)nc2)cc1)[C@@H](O)CN(Cc1ccc(-c2ccn(CC(F)F)n2)cc1)NC(=O)[C@@H](NC(=O)OC)C(C)(C)C(F)(F)F)C(C)(C)C(F)(F)F [Example 3, Methyl ((5S,10S,11S,14S)-8-(4-(1-(2,2-difluoroethyl)-1H-pyrazol-3-yl)benzyl)-16,16,16-trifluoro-10-hydroxy-15,15-dimethyl-11-(4-((6-(8-(oxetan-3-yl)-3,8-diazabicyclo[3.2.1]octan-3-yl)pyridin-3-yl)ethynyl)benzyl)-3,6,13-trioxo-5-(1,1,1-trifluoro-2-methylpropan-2-yl)-2-oxa-4,7,8,12-tetraazahexadecan-14-yl)carbamate]	6.95 nM	
COC(=O)N[C@H](C(=O)N[C@@H](Cc1ccc(C#Cc2ccc(N3CC4CCC(C3)N4C(=O)C3(C)COC3)nc2)cc1)[C@@H](O)CN(Cc1c(F)cc(-c2ccn(C)n2)cc1F)NC(=O)[C@@H](NC(=O)OC)C(C)(C)C)C(C)(C)C [Example 4]	2.82 nM	
COC(=O)N[C@H](C(=O)NN(Cc1c(F)cc(-c2ccn(C3CC3)n2)cc1F)C[C@H](O)[C@H](Cc1ccc(C#Cc2ccc(N3CC4CCC(C3)N4C3COC3)nc2)cc1)NC(=O)[C@@H](NC(=O)OC)C(C)(C)C(F)(F)F)C(C)(C)C [Example 5, methyl ((5S,8S,9S,14S)-11-(4-(1-cyclopropyl-1H-pyrazol-3-yl)-2,6-difluorobenzyl)-9-hydroxy-15,15-dimethyl-8-(4-((6-(8-(oxetan-3-yl)-3,8-diazabicyclo[3.2.1]octan-3-yl)pyridin-3-yl)ethynyl)benzyl)-3,6,13-trioxo-5-(1,1,1-trifluoro-2-methylpropan-2-yl)-2-oxa-4,7,11,12-tetraazahexadecan-14-yl)carbamate]	4.37 nM	
COC(=O)N[C@H](C(=O)NN(Cc1c(F)cc(-c2ccn(CC(F)F)n2)cc1F)C[C@H](O)[C@H](Cc1ccc(C#Cc2ccc(N3C[C@H]4C[C@@H]3CN4C3COC3)nc2)cc1)NC(=O)[C@@H](NC(=O)OC)C(C)(C)C(F)(F)F)C(C)(C)C [Example 8, methyl ((5S,8S,9S,14S)-11-(4-(1-(2,2-difluoroethyl)-1H-pyrazol-3-yl)-2,6-difluorobenzyl)-9-hydroxy-15,15-dimethyl-8-(4-((6-((1R,4R)-5-(oxetan-3-yl)-2,5-diazabicyclo[2.2.1]heptan-2-yl)pyridin-3-yl)ethynyl)benzyl)-3,6,13-trioxo-5-(1,1,1-trifluoro-2-methylpropan-2-yl)-2-oxa-4,7,11,12-tetraazahexadecan-14-yl)carbamate]	2.46 nM	
COC(=O)N[C@H](C(=O)N[C@@H](Cc1ccc(C#Cc2ccc(N3CCN4CCOC[C@H]4C3)nc2)cc1)[C@@H](O)CN(Cc1c(F)cc(-c2ccn(CC(F)F)n2)cc1F)NC(=O)[C@@H](NC(=O)OC)C(C)(C)C(F)(F)F)C(C)(C)C(F)(F)F [Example 10, Methyl ((5S,8S,9S,14S)-11-(4-(1-(2,2-difluoroethyl)-1H-pyrazol-3-yl)-2,6-difluorobenzyl)-16,16,16-trifluoro-8-(4-((6-((R)-hexahydropyrazino[2,1-c][1,4]oxazin-8(1H)-yl)pyridin-3-yl)ethynyl)benzyl)-9-hydroxy-15,15-dimethyl-3,6,13-trioxo-5-(1,1,1-trifluoro-2-methylpropan-2-yl)-2-oxa-4,7,11,12-tetraazahexadecan-14-yl)carbamate]	3.46 nM	
COC(=O)N[C@H](C(=O)NN(Cc1c(F)cc(-c2ccn(C(F)F)n2)cc1F)C[C@H](O)[C@H](Cc1ccc(C#Cc2ccc(N3CC4CC(C3)N4C3COC3)nc2)cc1)NC(=O)[C@@H](NC(=O)OC)C(C)(C)C(F)(F)F)C(C)(C)C [Example 12, Methyl ((5S,8S,9S,14S)-11-(4-(1-(difluoromethyl)-1H-pyrazol-3-yl)-2,6-difluorobenzyl)-9-hydroxy-15,15-dimethyl-8-(4-((6-(6-(oxetan-3-yl)-3,6-diazabicyclo[3.1.1]heptan-3-yl)pyridin-3-yl)ethynyl)benzyl)-3,6,13-trioxo-5-(1,1,1-trifluoro-2-methylpropan-2-yl)-2-oxa-4,7,11,12-tetraazahexadecan-14-yl)carbamate]	3.11 nM	
COC(=O)N[C@H](C(=O)NN(Cc1c(F)cc(-c2ccn(C(F)F)n2)cc1F)C[C@H](O)[C@H](Cc1ccc(C#Cc2ccc(N3CCN4CCOC[C@H]4C3)nc2)cc1)NC(=O)[C@@H](NC(=O)OC)C(C)(C)C(F)(F)F)C(C)(C)C [Example 13, Methyl ((5S,8S,9S,14S)-11-(4-(1-(difluoromethyl)-1H-pyrazol-3-yl)-2,6-difluorobenzyl)-8-(4-((6-((R)-hexahydropyrazino[2,1-c][1,4]oxazin-8(1H)-yl)pyridin-3-yl)ethynyl)benzyl)-9-hydroxy-15,15-dimethyl-3,6,13-trioxo-5-(1,1,1-trifluoro-2-methylpropan-2-yl)-2-oxa-4,7,11,12-tetraazahexadecan-14-yl)carbamate]	6.3 nM	
COC(=O)N[C@H](C(=O)N[C@@H](Cc1ccc(C#Cc2ccc(N3CC4CCC(C3)N4C3COC3)nc2)cc1)[C@@H](O)CN(Cc1c(F)cc(-c2ccn([C@@H]3CCOC3)n2)cc1F)NC(=O)[C@@H](NC(=O)OC)C(C)(C)C(F)(F)F)C(C)(C)C(F)(F)F [Example 15, Methyl ((5S,8S,9S,14S)-11-(2,6-difluoro-4-(1-((R)-tetrahydrofuran-3-yl)-1H-pyrazol-3-yl)benzyl)-16,16,16-trifluoro-9-hydroxy-15,15-dimethyl-8-(4-((6-(8-(oxetan-3-yl)-3,8-diazabicyclo[3.2.1]octan-3-yl)pyridin-3-yl)ethynyl)benzyl)-3,6,13-trioxo-5-(1,1,1-trifluoro-2-methylpropan-2-yl)-2-oxa-4,7,11,12-tetraazahexadecan-14-yl)carbamate]	4.22 nM	
COC(=O)N[C@H](C(=O)N[C@@H](Cc1ccc(C#Cc2ccc(N3CC4CCC(C3)N4C(=O)N(C)C)nc2)cc1)[C@@H](O)CN(Cc1c(F)cc(-c2cnn(C(F)F)c2)cc1F)NC(=O)[C@@H](NC(=O)OC)C(C)(C)C(F)(F)F)C(C)(C)C(F)(F)F [Example 17, Methyl ((5S,8S,9S,14S)-11-(4-(1-(difluoromethyl)-1H-pyrazol-4-yl)-2,6-difluorobenzyl)-8-(4-((6-(8-(dimethylcarbamoyl)-3,8-diazabicyclo[3.2.1]octan-3-yl)pyridin-3-yl)ethynyl)benzyl)-16,16,16-trifluoro-9-hydroxy-15,15-dimethyl-3,6,13-trioxo-5-(1,1,1-trifluoro-2-methylpropan-2-yl)-2-oxa-4,7,11,12-tetraazahexadecan-14-yl)carbamate]		7.24 nM
COC(=O)N[C@H](C(=O)N[C@@H](Cc1ccc(C#Cc2ccc(N3CC4CCC(C3)N4C3COC3)nc2)cc1)[C@@H](O)CN(Cc1c(F)cc(-c2ccn(C)n2)cc1F)NC(=O)[C@@H](NC(=O)OC)C(C)(C)C)C(C)(C)C [Example 22, Methyl ((5S,8S,9S,14S)-5-(tert-butyl)-1-(2,6-difluoro-4-(1-methyl-1H-pyrazol-3-yl)benzyl)-9-hydroxy-15,15-dimethyl-8-(4-((6-(8-(oxetan-3-yl)-3,8-diazabicyclo[3.2.1]octan-3-yl)pyridin-3-yl)ethynyl)benzyl)-3,6,13-trioxo-2-oxa-4,7,11,12-tetraazahexadecan-14-yl)carbamate]	3.24 nM	
COC(=O)N[C@H](C(=O)N[C@@H](Cc1ccc(C#Cc2cnc(N3C[C@H]4C[C@@H]3CN4C3COC3)nc2)cc1)[C@@H](O)CN(Cc1c(F)cc(-c2ncccn2)cc1F)NC(=O)[C@@H](NC(=O)OC)C(C)(C)C(F)(F)F)C(C)(C)C(F)(F)F [Example 24, Methyl ((5S,8S,9S,14S)-11-(2,6-difluoro-4-(pyrimidin-2-yl)benzyl)-16,16,16-trifluoro-9-hydroxy-15,15-dimethyl-8-(4-((2-((1R,4R)-5-(oxetan-3-yl)-2,5-diazabicyclo[2.2.1]heptan-2-yl)pyrimidin-5-yl)ethynyl)benzyl)-3,6,13-trioxo-5-(1,1,1-trifluoro-2-methylpropan-2-yl)-2-oxa-4,7,11,12-tetraazahexadecan-14-yl)carbamate]		3.82 nM
COC(=O)N[C@H](C(=O)N[C@@H](Cc1ccc(C#Cc2ccc(N3C[C@H]4C[C@@H]3CN4C3COC3)nc2)cc1)[C@@H](O)CN(Cc1c(F)cc(-c2nnc(C3CC3)s2)cc1F)NC(=O)[C@@H](NC(=O)OC)C(C)(C)C(F)(F)F)C(C)(C)C(F)(F)F [Example 27, Methyl ((5S,8S,9S,14S)-11-(4-(5-cyclopropyl-1,3,4-thiadiazol-2-yl)-2,6-difluorobenzyl)-16,16,16-trifluoro-9-hydroxy-15,15-dimethyl-8-(4-((6-((1R,4R)-5-(oxetan-3-yl)-2,5-diazabicyclo[2.2.1]heptan-2-yl)pyridin-3-yl)ethynyl)benzyl)-3,6,13-trioxo-5-(1,1,1-trifluoro-2-methylpropan-2-yl)-2-oxa-4,7,11,12-tetraazahexadecan-14-yl)carbamate]		3.5 nM
